# Laboratory results taken from patent US6323204A, “Methods for using (2-imidazolin-2-ylamino) quinoxaline derivatives” (Allergan, priority 1998, dated 2001).
# Like-named read-outs stand apart in the source and are kept apart here.
# How the values were obtained:
# [1] = mouse hexobarbital sleep time test (central nervous system anesthetization activity); type: in vivo; conditions: i.v., with hexobarbital 75 mg/kg i.p., dose which potentiates sleep time by 15 minutes
# Method: (§1) Two (2) animal models were utilized to determine the central nervous system anesthetization activity of the quinoxaline derivative produced in Example 2.
# (§2) The first of these animal models is identified generally as the mouse hexobarbital sleep time test. Briefly, the compound in question (in a dosage range of between 10 and 500 micrograms/kg, i.v.) and the barbiturate hexobarbital (75 mg/kg, i.p) are coadministered to mice weighing 20 to 22 grams. […] Sleep time is assessed as the time associated with the loss of the animal's reflex to right itself when placed on its back. The ED15 is estimated from dose-response data as the effective dose which potentiates sleep time by 15 minutes. The second animal model used is identified generally as the rat activity test. Briefly, rats weighing 140 to 160 grams are placed into an environmentally isolated activity monitor five (5) minutes following administration of the compound in question (in the range of 1 to 1000 micrograms/kg, i.v.). Horizontal activity, measured in counts is determined for five (5) minutes.
# (§3) The final quinoxaline derivative produced in Example 2 was tested using both of the above-noted animal models. For comparison purposes, clonidine and its hydrophilic analog, p-amino-clonidine, were also tested using these animal models.
# [2] = rat activity test (central nervous system anesthetization activity); type: in vivo; conditions: iv, read-out: ID50 Rat Activity
# Method: as §1, §2, §3
# [3] = in words; stated as known; cited from earlier work
# [4] = in words
# Method: The final quinoxaline derivative produced in Example 2, that is 5-bromo-6-(2-imidazolin-2-ylamino)quinoxaline, was tested for central nervous system anesthetization activity as follows.
# as §1, §2
# The final quinoxaline derivative produced in Example 2 was tested using both of the above-noted animal models. […]
Compound,ED15 Mouse Sleep-Time [1],ED50 ([2]; Rattus norvegicus),anesthetization activity (known) [3],central nervous system anesthetization activity compared with the hydrophilic analog of clonidine (p-amino clonidine) [4],central nervous system anesthetization activity ([4]; mouse sleep time and rat activity tests),"ED50 ([2]; rat, i.v., dose which decreases horizontal activity by 50%)"
Clc1cccc(Cl)c1N=C1NCCN1 [Clonidine],0.075 mg/kg,0.026 mg/kg,significant anesthetization activity,,,
"Brc1c(NC2=NCCN2)ccc2nccnc12 [Example 2, 5-bromo-6-(2-imidazolin-2-ylamino) quinoxaline]",0.116 mg/kg,0.077 mg/kg,,substantially more of such activity,substantial central nervous system anesthetization activity,
Nc1cc(Cl)c(NC2=NCCN2)c(Cl)c1 [p-Amino Clonidine],> 0.5 mg/kg,,,,,0.302 mg/kg
